{
  "source": "patent US12409304B2",
  "about": "“Drug delivery devices with drug-permeable component and methods” (TARIS Biomedical LLC, priority 2013, dated 2025)",
  "key": {"[1]": {"assay": "In vitro drug permeation from Tecophilic film pouches loaded with a gemcitabine tablet (Example 1)", "format": "physicochemical", "conditions": "DI water at 37° C.", "description": "Pouches formed of Tecophilic™ film and loaded with gemcitabine (GEM) were tested in vitro for drug permeation. The effect of gamma irradiation on these pouches was also studied. The pouches were made of HP-93A-100 and HP-60D-60 films with thickness of 0.5 mm (films provided by Lubrizol) (http://www.lubrizol.com/Medical/Products/Tecophilic.html). These thermoplastic polyurethanes (TPUs) were selected for their biocompatibility and ability to absorb equilibrium water content up to 100% of the weight of dry resin, as well as other properties. The material properties of the film materials used are given below in Table 1. Each pouch was made out of 2 films which were heat-sealed at all four edges of each pouch after loading each pouch with a single tablet of gemcitabine HCl or base formulated as follows: (1) Gemcitabine HCl: 89% GEM HCl, 10% Isomalt, 1% Lubritab (water insoluble), or […] Some of the pouches were gamma irradiated (25 kGy). The pouches were then placed into 21 mL DI water at 37° C. Thereafter, at each time point, 5× inversion, 1 mL sample was taken out followed by a 1 mL DI water refill."}, "physchem": {"assay": "physchem", "conditions": "37 °C, water"}, "[2]": {"assay": "Approximate solubility of drugs in water"}, "[3]": {"assay": "In vitro gemcitabine release from one-module and four-module devices with end wall disks (Example 5)", "format": "physicochemical", "conditions": "one module device, jar rotated at 4 rpm or not", "description": "There were three experimental groups tested: 1) one module device with the releasing jar being rotated in the rotator at 4 rpm ('Rotator'), 2) one module device without the jar rotated ('Static'), and 3) four module device without the jar rotated ('Static'). Each module is comprised of silicone tube made of MED-4750 (Nusil) with the dimensions of 2.64 mm ID and 0.20 mm wall thickness. Multiple gemcitabine HCl tablets with 2.6 mm OD were loaded into the silicone tube with each module having a total gemcitabine HCl payload of approximately 190 mg. The tablet formulation was 90% gemcitabine HCl, 5% PVP, 2.5% Neusilin, and 2.5% magnesium stearate. […] Thermoplastic Polyurethanes) at each end of the tablet drug core. The dimensions of each disk were approximately 0.5 mm thickness and 3.0 mm OD. The OD (3.0 mm) of the disks was larger than the silicone tube ID (2.64 mm), and so the disks were frictionally fit in the silicone tube. Each module has a silicone outer washer, made of MED-4780 (Nusil), located next to each disk with silicone adhesive (MED3-4213) applied around the washer, to stabilize the outward migration of the disk. […] In addition, each module has a polyimide inner washer with 2.67 mm ID, 0.064 mm wall, and approximately 4 mm length. The inner washer was filled with a tablet so that the disk was initially in contact with the tablet. […]"}, "[4]": {"assay": "In vitro release from Tecophilic film pouches loaded with gemcitabine HCl and urea tablets (Example 1A)", "format": "physicochemical", "conditions": "pouches with 1 gemcitabine HCl tablet and 4 urea tablets, DI water at 37° C.", "description": "Pouches constructed as in Example 1 were made, except each was loaded with 1 gemcitabine (GEM) HCl tablet and 4 tablets of urea. The pouches were then placed into 21 mL DI water at 37° C. Thereafter, at each time point, 5× inversion, 1 mL sample was taken out followed by a 1 mL DI water refill."}},
  "note": "Where a name gives a salt, the structure may show the parent alone.",
  "data": [
    {"smiles": "Nc1ccn([C@@H]2O[C@H](CO)[C@@H](O)C2(F)F)c(=O)n1", "note": "[gemcitabine HCl]", "values": [
      {"measurement": "relative speed of release from pouches", "setting": "[1]; comparison of film grades and of drug forms", "result": "released faster than gemcitabine base"},
      {"measurement": "solubility", "setting": "physchem", "result": "~80", "unit": "mg/mL"}
    ]},
    {"smiles": "Nc1ccn([C@@H]2O[C@H](CO)[C@@H](O)C2(F)F)c(=O)n1", "note": "[gemcitabine base]", "values": [
      {"measurement": "approximate solubility", "setting": "[2]; water at 37° C.", "result": "~15", "unit": "mg/mL"}
    ]},
    {"smiles": "Nc1ccn([C@@H]2O[C@H](CO)[C@@H](O)C2(F)F)c(=O)n1", "note": "[gemcitabine]", "values": [
      {"measurement": "permeation through 0.5 mm Tecophilic film", "setting": "[1]; HP-93A-100 and HP-60D-60 pouches", "result": "permeated 0.5 mm Tecophilic™ film"},
      {"measurement": "gemcitabine release rate, Static vs Rotator", "setting": "[3]", "result": "no significant difference"},
      {"measurement": "permeation through 0.5 mm Tecophilic film", "setting": "[4]", "result": "permeated 0.5 mm Tecophilic™ film in one day"}
    ]},
    {"smiles": "Cc1ccc(O)c([C@H](CCN(C(C)C)C(C)C)c2ccccc2)c1", "note": "[tolterodine tartrate]", "values": [
      {"measurement": "solubility", "setting": "physchem", "result": "~12", "unit": "mg/mL"}
    ]},
    {"smiles": "O=C(O[C@H]1C[C@H]2CC[C@@H](C1)[N+]21CCCC1)C(O)(c1ccccc1)c1ccccc1", "note": "[trospium chloride]", "values": [
      {"measurement": "solubility", "setting": "[2]; 37 °C, water", "result": "~500", "unit": "mg/mL"}
    ]},
    {"smiles": "NC(N)=O", "note": "[urea]", "values": [
      {"measurement": "permeation through 0.5 mm Tecophilic film", "setting": "[4]", "result": "permeated 0.5 mm Tecophilic™ film in one day"}
    ]}
  ]
}
